# Source: US6703372B1, “Macrolides” (Biochemie S.A., priority 1999, dated 2004)
# Read-outs that look alike come from different tables or passages of the source.
# Legend:
# [1] = normal air humidity conditions, within some hours, stated as known, cited from earlier work
# [2] = stability of the crystalline structure (X-ray powder diffraction pattern) under normal air humidity conditions; format: physicochemical; settings: kept for several weeks under normal air humidity conditions
# Procedure: “Stable monohydrate” as used herein includes a compound of formula I in the form of a monohydrate which is crystalline and which maintains its crystalline structure for at least 24 hours, e.g. for several weeks, under normal, e.g. normal air humidity, conditions. The crystalline structure of azithromycin in the form of a monohydrate may be determined by its (known) X-ray powder diffraction pattern. The X-ray powder diffraction pattern and the IR spectrum of azithromycin in the form of a monohydrate obtained according to the following examples corresponding to that of known (unstable) azithromycin in the form of a monohydrate.
Compound,stability of the crystal structure [1],stability of the crystal structure ([1]; listed as azithromycin in the form of a monohydrate),crystallinity and X-ray powder diffraction pattern on storage [2]
"CC[C@H]1OC(=O)[C@H](C)[C@@H](O[C@H]2C[C@@](C)(OC)[C@@H](O)[C@H](C)O2)[C@H](C)[C@@H](O[C@@H]2O[C@H](C)C[C@H](N(C)C)[C@H]2O)[C@](C)(O)C[C@@H](C)CN(C)[C@H](C)[C@@H](O)[C@]1(C)O [azithromycin in the form of a dihydrate, 9-deoxo-9a-aza-9a-methyl-9a-homoerythromycin A, reference compound]",not to break down within some hours,–,–
CC[C@H]1OC(=O)[C@H](C)[C@@H](O[C@H]2C[C@@](C)(OC)[C@@H](O)[C@H](C)O2)[C@H](C)[C@@H](O[C@@H]2O[C@H](C)C[C@H](N(C)C)[C@H]2O)[C@](C)(O)C[C@@H](C)CN(C)[C@H](C)[C@@H](O)[C@]1(C)O [9-deoxo-9a-aza-9a-methyl-9a-homoerythromycin A],–,unstable,maintains its crystallinity and its X-ray powder diffraction pattern
